What was measured:
[1] = test system: thoracic aorta isolated from a rat; assay: Magnus method: vasodilatory potency on aortic ring, relaxation of Norepinephrine 0.3 μM-induced contraction; details: L-citrulline 1000 μM, single addition; vasoconstriction induced by 0.3 μM Norepinephrine
[2] = sublingual treatment, concentration-dependent; non-patent document 3; cited from earlier work

For `NC(=O)NCCC[C@H](N)C(=O)O` [L-citrulline], the “vascular relaxation rate (%)” value [1] was 15-20%.

For `COc1cc(CNC(=O)CCCCC=CC(C)C)ccc1O` [capsaicin, 8-methyl-N-vanillyl-6-nonenamide], the “concentration of capsaicin solution producing a feeling of strong pain” value [2] is listed as “not less than 75 μM”.
